Measurements: US20220370416A1, “COMPOUNDS AND METHODS FOR TARGETED DEGRADATION OF KRAS” (Arvinas Operations, Inc., priority 2020, published 2022)

Biological target: KRAS^G12C (Homo sapiens, UniProt P01116, G12C)
Test: KRAS^G12C degradation in a panel of 5 KRAS^G12C cancer cell lines (immunoblot)
Type: cell-based
Parameters: MRTX849-VHL bifunctional compounds engage and degrade endogenous KRAS^G12C in NCI-H2030 cells; endogenous in cells; host or cells: NCI-H2030, NCI-H358, MIA PaCa-2, SW1573, NCI-H23
Conditions: read-out: DMax values across cell lines
Procedure: NCI-H2030 (CRL-5914), MIA PaCa-2 (CRL-1420), NCI-H23 (CRL-5800), NCI-H358 (CRL-5807), and HCT-116 (CCL-247) cells were obtained from ATCC, expanded immediately, and frozen down. Vials were thawed and used within 20 passages. SW1573 cells were a gift from Arvinas and were handled in the same manner. NCI-H2030, NCI-H23, and NCI-H358 were cultured in RPMI (ATCC30-2001) supplemented with 10% FBS (Biological Industries; cat. no. S1480) and 1% Penicillin-Streptomycin (ThermoFisher; cat. no. 15140122). HCT-116 cells were maintained in high glucose DMEM (ThermoFisher; cat. no. 11965084) supplemented as above. […]
Cell lysates were clarified at 21000×g for 15 mins at 4° C. Protein levels were quantified using a 50:1 mixture of bicinchoninic acid solution (Millipore Sigma; cat. no. B9643) and 4% (w/v) copper(II) sulfate solution (Millipore Sigma; cat. no. C2284) incubated at 37° C. for 30 mins. Absorbance values at 560 nm were read on an EnVision 2101 Multilabel Reader (PerkinElmer). […]
Band intensities were quantified using BioRad's Image Lab Software. Total KRAS levels were examined by quantifying levels of both conjugated KRAS^G12C and unbound KRAS (wt or mutant) using an analysis box that spanned the two bands. This same sized box was used to quantify unbound KRAS in DMSO treated samples to account for background, except for LC-2 Epimer in FIGS. 6A and 6B. […]

Sequence of KRAS^G12C (P01116 1-188 isoform P01116-2 G12C): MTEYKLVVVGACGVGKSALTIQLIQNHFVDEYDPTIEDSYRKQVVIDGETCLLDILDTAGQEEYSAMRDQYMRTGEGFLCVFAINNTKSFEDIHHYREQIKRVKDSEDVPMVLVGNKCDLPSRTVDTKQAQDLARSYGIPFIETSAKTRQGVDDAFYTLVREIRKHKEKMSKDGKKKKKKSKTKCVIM

C=C(F)C(=O)N1CCN(c2nc(OC[C@@H]3CCCN3CCCOCCC(=O)N[C@H](C(=O)N3C[C@H](O)C[C@H]3C(=O)NCc3ccc(-c4scnc4C)cc3)C(C)(C)C)nc3c2CCN(c2cccc4cccc(Cl)c24)C3)C[C@@H]1CC#N [LC-2, (2S,4R)-1-((S)-2-(3-(3-((S)-2-(((7-(8-chloronaphthalen-1-yl)-4-((S)-3-(cyanomethyl)-4-(2-fluoroacryloyl)piperazin-1-yl)-5,6,7,8-tetrahydropyrido[3,4-d]pyrimidin-2-yl)oxy)methyl)pyrrolidin-1-yl)propoxy)propanamido)-3,3-dimethylbutanoyl)-4-hydroxy-N-(4-(4-methylthiazol-5-yl)benzyl)pyrrolidine-2-carboxamide]
Dmax: 75 to 90%
